US20260317344A1, “EGFR INHIBITORS FOR TREATING DISEASE” (BLOSSOMHILL THERAPEUTICS, INC., priority 2023, published 2026)
pIC50: −log10 of the molar value.

What was measured:
EGFR (L858R/T790M/C797S) = EGFR (L858R/T790M/C797S) (Homo sapiens, UniProt P00533, C797S/L858R/T790M); assay: HotSpot radiometric kinase assay, inhibition of EGFR L858R/T790M/C797S mutant; assay type: biochemical; details: 33P ATP, room temperature, 120 m
Outline: (§1)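 Radiometric filter-binding format: ATP plus 33P-ATP ([…]) was added about 20 min after compound to kinase and substrate in HEPES pH 7.5 buffer with Mg2+, EGTA, Brij35, BSA, vanadate, DTT and 1% DMSO. After 120 min at room temperature, reactions were spotted on P81 paper and washed in phosphoric acid; IC50 values fitted.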

EGFR (D746-750) = EGFR (D746-750) (Homo sapiens, UniProt P00533, DEL746-750); assay: HotSpot radiometric kinase assay, inhibition of EGFR 746-750 mutant; assay type: biochemical; details: 33P ATP, room temperature, 120 m
Outline: as §1

EGFR (D746-750/C797S) = EGFR (D746-750/C797S) (Homo sapiens, UniProt P00533, C797S/DEL746-750); assay: HotSpot radiometric kinase assay, inhibition of EGFR 746-750/C797S mutant; assay type: biochemical; details: 33P ATP, room temperature, 120 m
Outline: as §1

EGFR (D770_N771insNPG) = EGFR (D770_N771insNPG) (Homo sapiens, UniProt P00533, INS770NPG); assay: HotSpot radiometric kinase assay, inhibition of EGFR (D770_N771insNPG) mutant; assay type: biochemical; details: 33P ATP, room temperature, 120 m
Outline: as §1

[1] = target: T1, pEGFR, PC-9 cells (d746-750 EGFR) (Homo sapiens, UniProt P00533, DEL746-750); assay: Cellular EGFR phosphorylation assay (LANCE Ultra TR-FRET) in PC-9 cells; assay type: cell-based; details: 4 hours at 37° C., read-out: PC-9 pEGFR IC50
T1 construct: pEGFR (Tyr1068) TR-FRET
Description: (§2) Cellular EGFR Phosphorylation Assays
(§3) EGFR phosphorylation assays were conducted in NSCLC cells with EGFR activation mutations. PC-9 cells (purchased from Aldrich-Sigma) carry a Glu746-Ala750 deletion (d746-750) mutation in exon 19 of the EGFR gene and NCI-H1975 cells (purchased from ATCC) carry both L858R activation mutation and T790M gatekeeper mutation in the EGFR gene. A431 cells (purchased from ATCC) with amplification of wildtype EGFR, derived from epidermoid carcinoma, were used to measure the activity against wildtype EGFR. All cells were seeded in 96-well plates. For PC-9 and NCI-H1975 cells, 50 thousand cells were seeded per well. For A431 cells, 30 thousand cells were seeded per well. The next day, cells were exposed to compound for 4 hours at 37° C. and 5% CO2. Compounds were diluted in DMSO and added to cells in a 9-dose, 3-fold dilution, titration curve using TECAN d300e liquid dispenser. For A431 cells, 40 ng/mL of EGF was added to the media for the final 10 minutes of incubation. EGFR phosphorylation was measured using phospho-EGFR (Try1068) LANCE Ultra TR-FRET Detection Kit (TRF4015M) from PerkinElmer according to manufacturer's instructions. In brief, cells were lysed with 40 μL of lysis buffer plus 1× Halt protease and phosphatase inhibitor cocktail (Thermo 78441) and by incubation at room temperature for 1 h on a microplate shaker (350 rpm). 15 μ L of cell lysate was transferred to 384-well white plate and 5 μL of Europium- and ULight-labeled antibodies diluted in 1× detection buffer was added to each well. After 4-6 hours of incubation at room temperature, plates were then read on a TECAN Sparks multimode microplate reader. Data was analyzed using GraphPad Prism 9 (GraphPad Software, San Diego, CA) to obtain IC50 values.

[2] = target: T2, pEGFR, NCI-H1975 cells (L858R/T790M EGFR) (Homo sapiens, UniProt P00533, L858R/T790M); assay: Cellular EGFR phosphorylation assay (LANCE Ultra TR-FRET) in NCI-H1975 cells; assay type: cell-based; details: 4 hours at 37° C., read-out: H1975 pEGFR IC50
T2 construct: pEGFR (Tyr1068) TR-FRET
Description: as §2, §3

[3] = target: T3, pEGFR, A431 cells (wildtype EGFR) (Homo sapiens, UniProt P00533); assay: Cellular EGFR phosphorylation assay (LANCE Ultra TR-FRET) in A431 cells; assay type: cell-based; details: 4 hours at 37° C., 40 ng/mL EGF for the final 10 minutes, read-out: A431 pEGFR IC50
T3 construct: pEGFR (Tyr1068) TR-FRET
Description: as §2, §3

PC-9 cells = assay: 5-Day CellTiter Glo (CTG) cell proliferation assay, PC-9; assay type: cell-based; details: Homo sapiens; PC-9 cells (d746-750 EGFR), 5-day CTG proliferation, 120 hours; read-out: PC-9 IC50
Outline: (§4)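 Proliferation of EGFR-driven NSCLC cells was scored as CellTiter-Glo 2.0 luminescence after a 5-day (120 h) incubation with compounds in 9 doses. IC50 values came from the dose-response curves.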

NCI-H1975 cells = assay: 5-Day CellTiter Glo (CTG) cell proliferation assay, NCI-H1975; assay type: cell-based; details: Homo sapiens; NCI-H1975 cells (L858R/T790M EGFR), 5-day CTG proliferation, 120 hours; read-out: H1975 IC50
Outline: as §4

HCC827 cells = assay: 5-Day CellTiter Glo (CTG) cell proliferation assay, HCC827; assay type: cell-based; details: Homo sapiens; HCC827 cells (d746-750 EGFR), 5-day CTG proliferation, 120 hours; read-out: HCC827 IC50
Outline: as §4

[4] = system: BaF3 cells with engineered EGFR L858R/T790M/C797S; assay: 3-Day CellTiter Glo (CTG) cell proliferation assay, BaF3 EGFR L858R/T790M/C797S; assay type: cell-based; details: Mus musculus, 3-day CTG proliferation, 72 hours
Description: (§5) 3-DAY CellTiter Glo (CTG) Cell Proliferation Assays (BaF3 Cell Lines)
(§6) Cell proliferation assays were carried out in BaF3 cells engineered with EGFR mutations. BaF3 cells with engineered EGFR L858R/T790M/C797S, EGFR L858R/C797S, or EGFR d746-750/T790M transgene, one thousand cells/50 μL per well were seeded in white 384-well plate, followed by treatment with indicated compounds in a 9-dose dilution series using TECAN d300e liquid dispenser. Cells were incubated with compounds for 72 hours at 37° C. and 5% CO2. Cell proliferation was measured using CellTiter-Gbo 2.0 luciferase-based ATP detection assay (Promega, Madison, WI) at 18 μL per well following the manufacturer's protocol. Plates were then read on a TECAN Sparks multimode microplate reader. Data was analyzed using GraphPad Prism 9 (GraphiPad Software, San Diego, CA) to obtain IC50 values.

[5] = system: BaF3 cells with engineered EGFR L858R/C797S; assay: 3-Day CellTiter Glo (CTG) cell proliferation assay, BaF3 EGFR L858R/C797S; assay type: cell-based; details: Mus musculus, 3-day CTG proliferation, 72 hours
Description: as §5, §6

[6] = system: BaF3 cells with engineered EGFR d746-750/T790M; assay: 3-Day CellTiter Glo (CTG) cell proliferation assay, BaF3 EGFR d746-750/T790M; assay type: cell-based; details: Mus musculus; BaF3 EGFR d746-750/T790M cells, 3-day CTG proliferation, 72 hours
Description: as §5, §6

T2 sequence (P00533 25-1210 T790M/L858R): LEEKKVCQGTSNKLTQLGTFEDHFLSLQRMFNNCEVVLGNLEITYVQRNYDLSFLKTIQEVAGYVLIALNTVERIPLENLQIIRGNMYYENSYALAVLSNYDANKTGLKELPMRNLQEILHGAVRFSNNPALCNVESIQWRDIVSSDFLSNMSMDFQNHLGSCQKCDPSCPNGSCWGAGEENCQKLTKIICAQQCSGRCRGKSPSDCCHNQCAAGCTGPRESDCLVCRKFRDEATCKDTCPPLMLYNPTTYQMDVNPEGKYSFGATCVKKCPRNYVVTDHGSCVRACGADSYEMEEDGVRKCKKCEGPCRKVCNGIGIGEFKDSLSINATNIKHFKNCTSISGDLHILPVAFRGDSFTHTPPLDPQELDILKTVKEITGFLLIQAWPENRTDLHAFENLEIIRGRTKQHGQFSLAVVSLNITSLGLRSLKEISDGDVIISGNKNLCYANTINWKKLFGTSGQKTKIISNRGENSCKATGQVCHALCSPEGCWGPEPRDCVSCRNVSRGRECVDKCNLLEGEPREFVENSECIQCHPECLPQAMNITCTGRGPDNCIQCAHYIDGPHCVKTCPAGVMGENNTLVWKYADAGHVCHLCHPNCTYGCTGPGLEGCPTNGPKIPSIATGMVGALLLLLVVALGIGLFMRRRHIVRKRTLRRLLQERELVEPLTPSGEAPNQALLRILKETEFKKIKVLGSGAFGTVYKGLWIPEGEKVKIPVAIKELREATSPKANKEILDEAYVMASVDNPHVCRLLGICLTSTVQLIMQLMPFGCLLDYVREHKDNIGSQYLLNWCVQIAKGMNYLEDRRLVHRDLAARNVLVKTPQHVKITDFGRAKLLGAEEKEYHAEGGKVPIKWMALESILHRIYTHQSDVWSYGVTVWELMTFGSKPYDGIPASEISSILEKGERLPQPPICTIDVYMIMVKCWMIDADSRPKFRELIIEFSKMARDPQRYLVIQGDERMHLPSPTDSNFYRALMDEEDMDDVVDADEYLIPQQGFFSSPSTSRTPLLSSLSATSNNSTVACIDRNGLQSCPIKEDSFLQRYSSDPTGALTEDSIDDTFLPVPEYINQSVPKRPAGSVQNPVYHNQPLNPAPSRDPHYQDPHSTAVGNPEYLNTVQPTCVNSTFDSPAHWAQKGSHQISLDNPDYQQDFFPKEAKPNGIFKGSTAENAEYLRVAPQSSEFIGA
EGFR (L858R/T790M/C797S), sequence (P00533 25-1210 T790M/C797S/L858R): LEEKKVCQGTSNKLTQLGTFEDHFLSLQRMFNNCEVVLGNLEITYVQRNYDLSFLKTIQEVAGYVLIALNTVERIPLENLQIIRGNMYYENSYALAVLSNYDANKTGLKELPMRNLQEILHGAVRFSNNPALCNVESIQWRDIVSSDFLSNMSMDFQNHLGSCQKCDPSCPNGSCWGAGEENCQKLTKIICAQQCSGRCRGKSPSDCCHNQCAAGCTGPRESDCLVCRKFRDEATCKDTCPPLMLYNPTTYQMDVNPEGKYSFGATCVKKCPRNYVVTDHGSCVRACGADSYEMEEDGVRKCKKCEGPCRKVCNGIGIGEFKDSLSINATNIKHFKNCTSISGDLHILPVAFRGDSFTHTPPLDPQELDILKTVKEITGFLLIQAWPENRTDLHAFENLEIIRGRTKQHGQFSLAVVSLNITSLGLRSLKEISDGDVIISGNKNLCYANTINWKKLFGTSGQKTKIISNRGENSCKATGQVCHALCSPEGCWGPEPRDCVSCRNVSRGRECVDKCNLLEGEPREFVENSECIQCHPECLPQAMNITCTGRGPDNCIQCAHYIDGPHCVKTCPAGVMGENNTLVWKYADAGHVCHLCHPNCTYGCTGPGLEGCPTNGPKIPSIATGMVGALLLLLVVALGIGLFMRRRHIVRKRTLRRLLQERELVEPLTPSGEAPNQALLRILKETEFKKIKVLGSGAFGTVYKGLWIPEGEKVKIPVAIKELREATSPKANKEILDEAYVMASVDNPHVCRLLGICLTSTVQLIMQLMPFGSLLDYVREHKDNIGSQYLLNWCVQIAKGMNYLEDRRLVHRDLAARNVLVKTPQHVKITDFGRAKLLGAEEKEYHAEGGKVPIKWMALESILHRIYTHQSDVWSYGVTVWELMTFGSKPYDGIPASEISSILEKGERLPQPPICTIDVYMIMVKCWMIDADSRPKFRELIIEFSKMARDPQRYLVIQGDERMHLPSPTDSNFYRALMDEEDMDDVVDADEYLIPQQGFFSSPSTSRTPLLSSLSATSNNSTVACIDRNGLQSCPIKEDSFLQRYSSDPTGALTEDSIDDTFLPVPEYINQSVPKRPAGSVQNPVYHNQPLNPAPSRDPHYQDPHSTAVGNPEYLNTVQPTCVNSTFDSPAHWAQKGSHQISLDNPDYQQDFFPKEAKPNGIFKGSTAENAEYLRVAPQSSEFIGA
T1 sequence (P00533 with tags, fused parts or gaps DEL746-750): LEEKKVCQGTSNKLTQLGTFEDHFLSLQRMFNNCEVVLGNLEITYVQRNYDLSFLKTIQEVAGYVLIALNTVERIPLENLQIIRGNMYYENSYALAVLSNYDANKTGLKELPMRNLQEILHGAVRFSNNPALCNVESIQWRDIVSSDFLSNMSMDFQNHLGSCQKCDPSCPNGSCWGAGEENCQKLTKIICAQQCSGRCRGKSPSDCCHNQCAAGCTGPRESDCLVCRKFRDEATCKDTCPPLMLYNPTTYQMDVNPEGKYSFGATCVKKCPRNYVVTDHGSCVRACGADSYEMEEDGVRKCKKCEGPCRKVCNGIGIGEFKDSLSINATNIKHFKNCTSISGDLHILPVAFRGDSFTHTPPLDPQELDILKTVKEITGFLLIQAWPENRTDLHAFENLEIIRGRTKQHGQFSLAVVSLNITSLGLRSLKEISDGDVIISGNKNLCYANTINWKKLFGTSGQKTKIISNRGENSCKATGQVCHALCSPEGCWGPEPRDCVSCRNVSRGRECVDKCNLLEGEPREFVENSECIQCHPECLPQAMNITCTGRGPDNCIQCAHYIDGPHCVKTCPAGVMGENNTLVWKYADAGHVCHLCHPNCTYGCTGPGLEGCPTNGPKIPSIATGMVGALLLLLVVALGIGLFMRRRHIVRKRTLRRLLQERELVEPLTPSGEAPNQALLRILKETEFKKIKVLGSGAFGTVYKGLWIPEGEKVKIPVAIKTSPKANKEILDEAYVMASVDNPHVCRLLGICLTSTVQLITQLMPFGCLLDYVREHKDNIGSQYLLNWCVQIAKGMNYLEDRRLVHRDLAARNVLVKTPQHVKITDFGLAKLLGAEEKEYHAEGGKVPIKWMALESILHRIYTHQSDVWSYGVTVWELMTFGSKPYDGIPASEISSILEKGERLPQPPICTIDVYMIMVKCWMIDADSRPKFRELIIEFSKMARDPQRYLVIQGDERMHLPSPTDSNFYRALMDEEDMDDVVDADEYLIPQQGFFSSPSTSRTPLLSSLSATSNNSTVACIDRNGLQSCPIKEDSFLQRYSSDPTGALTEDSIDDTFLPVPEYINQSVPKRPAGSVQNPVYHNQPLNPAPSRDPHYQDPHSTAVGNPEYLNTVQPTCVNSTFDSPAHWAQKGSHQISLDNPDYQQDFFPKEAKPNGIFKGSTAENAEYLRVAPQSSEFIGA
EGFR (D746-750), sequence (P00533 with tags, fused parts or gaps DEL746-750): as above

Structure (SMILES)	pIC50 (EGFR (L858R/T790M/C797S))	pIC50 (EGFR (D746-750))	pIC50 (EGFR (D746-750/C797S))	pIC50 (EGFR (D770_N771insNPG))	pIC50 [1]	pIC50 [2]	pIC50 [3]	pIC50 (PC-9 cells)	pIC50 (NCI-H1975 cells)	pIC50 (HCC827 cells)	pIC50 [4]	pIC50 [5]	pIC50 [6]
CC(C)Oc1nn(CCO)c2c1/C=C/c1n[nH]c3cnc(cc13)-c1cnn(C)c1OC[C@H](C)N(C(C)C)C2 [Ex. 4, 2-[(11S,17E)-8,11-dimethyl-12-(propan-2-yl)-16-[(propan-2-yl)oxy]-2,8,10,11,12,13-hexahydro-14H-5,3-(azenometheno)tripyrazolo[3,4-f:3′,4′-j:4″,3″-n][1,4]oxazacyclopentadecin-14-yl]ethan-1-ol]	8.87	9.23	8.84	8.51	6.10	7.75	6.35	6.94	7.13	8.22	8.55	8.59	–
Cc1nn(C)c2c1-c1cc3c(n[nH]c3cn1)/C=C/c1c(OCC#N)nn(CCO)c1CN(C)[C@@H](C)CO2 [Ex. 31]	9.54	9.57	9.11	8.65	7.19	7.38	6.93	6.65	6.45	7.94	7.59	8.43	–
CCN1Cc2c(c(OCC#N)nn2[C@@H](C)CO)/C=C/c2n[nH]c3cnc(cc23)-c2c(C)nn(C)c2O[C@@H](C)C1 [Ex. 67, {[(10S,17E)-12-ethyl-14-[(2S)-1-hydroxypropan-2-yl]-6,8,10-trimethyl-2,10,11,12,13,14-hexahydro-8H-5,3-(azenometheno)tripyrazolo[3,4-f:3′,4′-j:4″,3″-n][1,4]oxazacyclopentadecin-16-yl]oxy}acetonitrile]	8.97	9.25	8.78	9.16	8.53	8.26	7.80	8.74	7.76	8.95	–	–	–
CCOc1nn(CCO)c2c1/C=C/c1n[nH]c3cnc(cc13)-c1c(C)nn(C)c1OCCN(C)C2 [Ex. 68, 2-[(17E)-16-ethoxy-6,8,12-trimethyl-2,8,10,11,12,13-hexahydro-14H-5,3-(azenometheno)tripyrazolo[3,4-f:3′,4′-j:4″,3″-n][1,4]oxazacyclopentadecin-14-yl]ethan-1-ol]	9.36	9.48	8.93	9.02	8.21	8.19	7.68	7.81	6.64	8.60	–	–	–
CCOc1nn(CCO)c2c1/C=C/c1n[nH]c3cnc(cc13)-c1c(c(C)nn1C)OCCN(C)C2 [Ex. 69, 2-[(17E)-16-ethoxy-6,8,12-trimethyl-2,6,10,11,12,13-hexahydro-14H-5,3-(azenometheno)tripyrazolo[3,4-f:3′,4′-j:3″,4″-n][1,4]oxazacyclopentadecin-14-yl]ethan-1-ol]	8.71	8.73	8.43	7.82	7.12	6.58	6.80	7.04	6.51	7.38	–	–	–
CCN(C)c1nn([C@@H](C)CO)c2c1/C=C/c1n[nH]c3c(C)nc(cc13)-c1c(C)nn(C)c1O[C@@H](C)CN(C)C2 [Ex. 102, (2S)-2-[(10S,17E)-16-[ethyl(methyl)amino]-6,8,10,12,20-pentamethyl-2,8,10,11,12,13-hexahydro-14H-5,3-(azenometheno)tripyrazolo[3,4-f:3′,4′-j:4″,3″-n][1,4]oxazacyclopentadecin-14-yl]propan-1-ol]	–	–	–	–	–	–	–	7.28	7.24	7.60	7.91	8.50	6.69
CCOc1nn([C@@H](C)CO)c2c1/C=C/c1n[nH]c3cnc(cc13)-c1c(C)nn(C)c1O[C@@H](C)CN(C(C)=O)C2 [Ex. 112, 1-[(10S,17E)-16-ethoxy-14-[(2S)-1-hydroxypropan-2-yl]-6,8,10-trimethyl-2,8,10,11,13,14-hexahydro-12H-5,3-(azenometheno)tripyrazolo[3,4-f:3′,4′-j:4″,3″-n][1,4]oxazacyclopentadecin-12-yl]ethan-1-one]	–	–	–	–	–	–	–	–	–	–	7.01	7.53	6.40
C=CC(=O)N1Cc2c(c(OCC)nn2[C@@H](C)CO)/C=C/c2n[nH]c3cnc(cc23)-c2c(C)nn(C)c2O[C@@H](C)C1 [Ex. 115, 1-[(10S,17E)-16-ethoxy-14-[(2S)-1-hydroxypropan-2-yl]-6,8,10-trimethyl-2,8,10,11,13,14-hexahydro-12H-5,3-(azenometheno)tripyrazolo[3,4-f:3′,4′-j:4″,3″-n][1,4]oxazacyclopentadecin-12-yl]prop-2-en-1-one]	–	–	–	–	–	–	–	8.47	8.21	8.83	7.50	8.04	8.52
